Results from patent US12545895B2, “Protection of beta cells from immune attack” (Joslin Diabetes Center, priority 2017, dated 2026).

test system: NIT-1 cells; experiment: Co-culture of NIT-1 cells with NOD splenocytes, active caspase 3 staining; type: cell-based, mouse; details: 24 hours, 50 splenocytes:1 NIT-1 cell, NIT-1 lines stably expressing gRNA, FIG. 7
Description: FIGS. 6A-6C show are in vitro co-culture system for studying NIT-1 cell death by NOD splenocytes. […] The ratios represent ratios of splenocytes to NIT-1 cells. For example, 50:1 indicates 50-times more splenocytes than NIT-1 cells, while 0:1 indicates NIT-1 cells cultured without splenocytes. P<0.0001=****.
NIT-1 cells were incubated for 24 hours with splenocytes at a ratio of 50 splenocytes:1 NIT-1 cell. P<0.05=*; P<0.01=**, and P<0.001=***.
There is little cell death over 24 hours of NIT-1 cells not co-cultured with NOD splenocytes (0:1 ratio of splenocytes to NIT-1 cells in FIG. 6B), as evidenced by weak staining of active caspase-3. In contrast, NIT-1 cells co-cultured with a high ratio of NOD splenocytes (50:1 ratio of splenocytes to NIT-1 cells in FIG. 6B) show high cell death, as evidenced by strong caspase-3 activity. […] This model can be used to study whether inhibiting or suppressing expression of target genes blocks or inhibits the ability of NOD splenocytes to mediate NIT-1 cell death over time.

Molecule | NIT-1 cell death mediated by NOD splenocytes (activated caspase 3)
SEQ ID No: 23: gRNA targeting mouse Men1, sequence CACGCCCGAGCTGTCCAGTT (listed as DNA, chemistry not fully specified) | significantly decreased
SEQ ID No: 33: second gRNA targeting mouse Men1, sequence GCTGTATGACCTCGGACATC (listed as DNA, chemistry not fully specified) | significantly decreased

test system: NIT-1 beta cells; experiment: Thapsigargin-induced ER stress, cell viability by MTT assay; type: cell-based, mouse; details: control NIT-1 cells, thapsigargin at different dosages, 3 days
Source text: NIT-1 beta cells were genetically modified at two genes—1) Rnls; and 2) Zbed3 with CRISPR/Cas9 and guide RNAs (gRNAs) targeting Rnls and Zbed3, respectively. The modified NIT-1 cells had reduced expression of renalase (Rnls mutants) or zinc finger BED domain-containing protein 3 (Zbed3 mutants). ER stress was induced by thapsigargin, which blocks the sarco/endoplasmic reticulum Ca^2+-ATPase (SERCA) pump on the ER, thus depleting calcium from the ER and leading to misfolding of proteins in ER and eventually ER stress induced cell death. All cells were treated with thapsigargin for 3 days, and cell viability was evaluated by a standard MTT assay (see Mosmann T, J Immunol Methods 65(1-2):55-63 (1983)). […] Thus, inhibiting expression of the Rnls or Zbed3 protected beta cells from cell death induced by ER stress. See FIG. 8 (Rnls) and FIG. 9 (Zbed3).

Molecule | beta cell death (cell viability, MTT)
C/C=C(/C)C(=O)O[C@H]1C(C)=C2[C@H]([C@@H]1OC(=O)CCCCCCC)[C@@](C)(OC(C)=O)C[C@H](OC(=O)CCC)[C@@]1(O)[C@H]2OC(=O)[C@@]1(C)O [thapsigargin] | induced beta cell death

test system: NIT-1 cells; experiment: CRISPR/Cas9 whole-genome loss-of-function (LOF) screen: GeCKO library-A infected NIT-1 cells transplanted into NOD.scid mouse with diabetic NOD splenocytes, gRNA sequencing of surviving graft; type: in vivo; details: surviving NIT-1 graft of one NOD.scid mouse, ~60 days, severely hyperglycemic; mini-seq
Source text: A series of tools to run a CRISPR/Cas9 mediated whole-genome loss-of-function (LOF) screen were developed. The GeCKO V2 lentiviral pooled library was used that comprises guide RNAs (gRNAs) against every gene (Addgene, targeting >20,000 genes with 6 gRNAs/gene). This library was split into two sub-libraries (A and B), which each cover all targeted genes with 3 gRNAs/gene. These libraries cover the entire coding genome to potentially mutate every gene and also contain >1000 non-targeting gRNAs as internal negative controls. In the GeCKO library, Cas9 and gRNAs were incorporated into a single lentiviral vector to introduce these gene-targeting elements into beta cells by lentiviral infection.
A high-stringency LOF screen was done using a single mouse. In this model, 10^7 GeCKO library-A infected NIT-1 cells (multiplicity of infection (MOI)=0.3) were injected subcutaneously, and 10^7 diabetic NOD splenocytes were injected intravenously at the same time.
For sequencing, genomic DNA from explanted grafts was extracted with genome DNA midi prep kits, and the gRNA region was amplified from genomic DNA using established protocols.
Selection pressure (i.e., autoimmune attack) on transplanted NIT-1 cells was maximized by waiting until NOD.scid mice had become severely hyperglycemic (˜60 days, marked by the arrow) as shown in FIG. 4. Even after the blood glucose of one recipient NOD.scid mouse had reached approximately 500 mg/dL, approximately 50,000 cells from the remaining graft could be isolated. gRNAs were amplified from the genome DNA of the graft and surveyed by mini-seq (low-depth sequencing).
Since the GeCKO library (A library) only contain approximately 60,000 unique gRNAs, 10^6-10^7 sequencing reads was sufficient to cover the whole library and to achieve statistical significance. Typically, one high throughput sequencing reaction using the second generation Illumina system (e.g. NextSeq 500) can yield ˜150 millions of sequence reads, so multiple samples from different grafts were barcoded, mixed and sequenced together, thus greatly reducing sequencing costs.
The sequencing data was de-barcoded and then analyzed by bioinformatics analysis. Established analysis tools such as HiTSelect or MAGeCK were used for gRNA enrichment analysis. In sum, the ability to amplify, sequence and sub-clone gRNAs after in vivo selection allowed identification of genes whose suppression improved beta cell survival.
As expected with the high stringency selection, only 13 unique gRNAs that target 12 genes out of >60,000 gRNAs present in pre-implantation cells were identified. The number of times the gRNA was present in sequence (count), the frequency of the gRNA in the total reads, and the gene targeted by the gRNA are shown in Table 2. Two different gRNAs targeting Menl were found in the screen. The target genes in Table 2 encode for mouse SEQ ID Nos: 11-22 in Table 1, and the known human equivalents of these gene products are SEQ ID Nos: 1-10 in Table 1.

Molecule | Count (number of times the gRNA was present in sequence) | Frequency (% of total reads)
SEQ ID No: 23: gRNA targeting mouse Men1, sequence CACGCCCGAGCTGTCCAGTT (listed as DNA, chemistry not fully specified) | 4919 | 16.34 % of total reads
SEQ ID No: 24: gRNA targeting mouse Hivep2, sequence TACGCACTCATACTGATGTT (listed as DNA, chemistry not fully specified) | 4073 | 13.53 % of total reads
SEQ ID No: 25: gRNA targeting mouse Rnls, sequence CTACTCCTCTCGCTATGCTC (listed as DNA, chemistry not fully specified) | 3810 | 12.66 % of total reads
SEQ ID No: 26: gRNA targeting mouse Lgsn, sequence TGCAACCGCGAACCCTTACC (listed as DNA, chemistry not fully specified) | 3252 | 10.80 % of total reads
SEQ ID No: 27: gRNA targeting mouse GCN1 (Gcn1l1), sequence GCTTGACACTGCATCGATAT (listed as DNA, chemistry not fully specified) | 3228 | 10.72 % of total reads
SEQ ID No: 28: gRNA targeting mouse Gm3604, sequence ACTTTCGTATACAGATACTG (listed as DNA, chemistry not fully specified) | 3226 | 10.72 % of total reads
SEQ ID No: 29: gRNA targeting mouse Plin4, sequence CTGCCTCCTTAGTTCCGACA (listed as DNA, chemistry not fully specified) | 2529 | 8.40 % of total reads
SEQ ID No: 30: gRNA targeting mouse Med11, sequence TTTCACGCTCGATATCCTCC (listed as DNA, chemistry not fully specified) | 1346 | 4.47 % of total reads
SEQ ID No: 31: gRNA targeting mouse Tgm6, sequence CATCGGTGGCTGGGTCCTCC (listed as DNA, chemistry not fully specified) | 1225 | 4.07 % of total reads
SEQ ID No: 32: gRNA targeting mouse Zbed3, sequence GCGCGAGGCGGCCCTAATGC (listed as DNA, chemistry not fully specified) | 1160 | 3.85 % of total reads
SEQ ID No: 33: second gRNA targeting mouse Men1, sequence GCTGTATGACCTCGGACATC (listed as DNA, chemistry not fully specified) | 702 | 2.33 % of total reads
SEQ ID No: 34: gRNA targeting mouse Olfr911-ps1, sequence CTTCAAATGAGATCCACTGC (listed as DNA, chemistry not fully specified) | 503 | 1.67 % of total reads
SEQ ID No: 35: gRNA targeting mouse Grm2, sequence GCGGCATAACGCCACACCCG (listed as DNA, chemistry not fully specified) | 131 | 0.44 % of total reads
